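How tested: cells in 96-well plates exposed to compound for 48 hours at five concentrations. The concentration for 50% growth inhibition is given as GI50.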 Calls of active or inactive are those of the source. Cut-off read from the data, not from the text of the source: active = GI50 up to about 1.1 µM and inactive = higher.
Experiments:
Assay in all cases: NCI-60 cell line screen, 48 h
HT-29 = tested on: HT-29
NCI-H23 = tested on: NCI-H23
SK-MEL-2 = tested on: SK-MEL-2
OVCAR-4 = tested on: OVCAR-4
HL-60 = tested on: HL-60
ACHN = tested on: ACHN
SR = tested on: SR
LOX IMVI = tested on: LOX IMVI
SK-OV-3 = tested on: SK-OV-3
OVCAR-8 = tested on: OVCAR-8
SNB-19 = tested on: SNB-19
UACC-62 = tested on: UACC-62
IGROV-1 = tested on: IGROV-1
OVCAR-3 = tested on: OVCAR-3
OVCAR-5 = tested on: OVCAR-5
HCT-116 = tested on: HCT-116

| Structure (SMILES) | GI50 (HT-29) | GI50 (NCI-H23) | GI50 (SK-MEL-2) | GI50 (OVCAR-4) | GI50 (HL-60) | GI50 (ACHN) | GI50 (SR) | GI50 (LOX IMVI) | GI50 (SK-OV-3) | GI50 (OVCAR-8) | GI50 (SNB-19) | GI50 (UACC-62) | GI50 (IGROV-1) | GI50 (OVCAR-3) | GI50 (OVCAR-5) | GI50 (HCT-116) |
| --- | --- | --- | --- | --- | --- | --- | --- | --- | --- | --- | --- | --- | --- | --- | --- | --- |
| COc1ccc(-c2cc(O)c3cc4c(cc3n2)OCO4)c(OC)c1 | 43 µM (inactive) | 70.3 µM (inactive) | 55.1 µM (inactive) | 71.1 µM (inactive) | 20 µM (inactive) | 37.1 µM (inactive) | 22.1 µM (inactive) | 47.9 µM (inactive) | 87.3 µM (inactive) | 96.6 µM (inactive) | 67.6 µM (inactive) | 28.3 µM (inactive) | > 100 µM (inactive) |  |  |  |
| CC1(O)CC2C(CC1SCCO)C2(C)C (stereo unspecified) | > 100 µM (inactive) | > 100 µM (inactive) | > 100 µM (inactive) | > 100 µM (inactive) | > 100 µM (inactive) | > 100 µM (inactive) |  |  | > 100 µM (inactive) | > 100 µM (inactive) |  |  | > 100 µM (inactive) | > 100 µM (inactive) | > 100 µM (inactive) | > 100 µM (inactive) |
| O=C1CCCCC/C=C2/CC[C@H](Sc3ccccc3)[C@@H]12 | > 100 µM (inactive) | 83 µM (inactive) | 71.9 µM (inactive) | > 100 µM (inactive) | 52.1 µM (inactive) | 42.5 µM (inactive) | 55.2 µM (inactive) | 43 µM (inactive) | 82.2 µM (inactive) | 74.1 µM (inactive) | 73.8 µM (inactive) | > 100 µM (inactive) |  |  |  | 52.4 µM (inactive) |
| CC1NOC(=O)C1/N=N/c1ccccc1Br (stereo unspecified) | 39.6 µM (inactive) | 22.6 µM (inactive) | 16.2 µM (inactive) | 39.3 µM (inactive) | 18.9 µM (inactive) | 35.3 µM (inactive) | 25.1 µM (inactive) | 23.9 µM (inactive) | 38.1 µM (inactive) | 22 µM (inactive) | 37.4 µM (inactive) | 19.9 µM (inactive) | 36 µM (inactive) | 20.5 µM (inactive) | 40.7 µM (inactive) | 32.5 µM (inactive) |
| N/N=C1/C(=O)N(c2ccc(Cl)cc2)C(=O)C(=O)C1c1nc2ccccc2s1 (stereo unspecified) | > 100 µM (inactive) | > 100 µM (inactive) | > 100 µM (inactive) | > 100 µM (inactive) | > 100 µM (inactive) | > 100 µM (inactive) |  | > 100 µM (inactive) | > 100 µM (inactive) | > 100 µM (inactive) | > 100 µM (inactive) | > 100 µM (inactive) | > 100 µM (inactive) | > 100 µM (inactive) | > 100 µM (inactive) | > 100 µM (inactive) |
| CN/N=C(/CC(=O)c1sc(-n2nc(-c3ccccc3)cc2-c2ccccc2)nc1C)C(=O)Nc1ccc(Cl)c(Cl)c1 | 25.9 µM (inactive) | 23.7 µM (inactive) | > 100 µM (inactive) | 52.6 µM (inactive) |  | 25.1 µM (inactive) | 29.3 µM (inactive) | 22.5 µM (inactive) | 24.6 µM (inactive) | 51.1 µM (inactive) | > 100 µM (inactive) | 26.5 µM (inactive) | 61 µM (inactive) | 38.7 µM (inactive) | 16.1 µM (inactive) | 34.5 µM (inactive) |
| IC[P+]1(c2ccccc2)CCCC1 | 37.3 µM (inactive) | 39.4 µM (inactive) | > 100 µM (inactive) |  | 45.1 µM (inactive) | 82.4 µM (inactive) | 33.4 µM (inactive) | 26.7 µM (inactive) | > 100 µM (inactive) | 32.4 µM (inactive) | 59.6 µM (inactive) | > 100 µM (inactive) | > 100 µM (inactive) | 43 µM (inactive) | > 100 µM (inactive) | 49.8 µM (inactive) |
| Cn1cc(C2(C)CC(C)(C)c3c2n(C)c2ccccc32)c2ccccc21 (stereo unspecified) | 49.8 µM (inactive) | 95.3 µM (inactive) | > 100 µM (inactive) |  |  |  |  | > 100 µM (inactive) | > 100 µM (inactive) | > 100 µM (inactive) | > 100 µM (inactive) | > 100 µM (inactive) | > 100 µM (inactive) | 64 µM (inactive) |  |  |
| COC(=O)CCc1cccnc1/C=N/O | > 100 µM (inactive) | > 100 µM (inactive) | > 100 µM (inactive) | > 100 µM (inactive) | > 100 µM (inactive) | > 100 µM (inactive) | > 100 µM (inactive) | > 100 µM (inactive) | > 100 µM (inactive) | > 100 µM (inactive) | > 100 µM (inactive) | > 100 µM (inactive) | > 100 µM (inactive) | > 100 µM (inactive) | > 100 µM (inactive) | > 100 µM (inactive) |
| O=C(CN1CCCCC1)N1CCc2c([nH]c3ccccc23)C1c1cccnc1 (stereo unspecified) | > 100 µM (inactive) | > 100 µM (inactive) |  | > 100 µM (inactive) | > 100 µM (inactive) | > 100 µM (inactive) |  | > 100 µM (inactive) | > 100 µM (inactive) | > 100 µM (inactive) | > 100 µM (inactive) | > 100 µM (inactive) | > 100 µM (inactive) | > 100 µM (inactive) | > 100 µM (inactive) | > 100 µM (inactive) |
| Cn1nc(-c2ccccc2)c(C(=O)/C=C/c2ccc(Cl)cc2)c(N2CCCCC2)c1=O | 1.45 µM (inactive) | 2.19 µM (inactive) |  |  | 1.82 µM (inactive) | 1.92 µM (inactive) |  | 2.41 µM (inactive) | 3.52 µM (inactive) | 3.8 µM (inactive) | 2.14 µM (inactive) | 2.2 µM (inactive) | 2.15 µM (inactive) |  |  | 1.81 µM (inactive) |
| CC(=O)NC1C(OCc2ccccc2)OC(COC(=O)CCCCCCCCCCNC(=O)CCNc2ccc([N+](=O)[O-])c3[nH]c4ccc(O)cc4c(=O)c23)C(O)C1OC(C)C(=O)N[C@H](C(=O)N[C@H](CCC(=O)O)C(N)=O)C(C)C (stereo partly specified) | 56.2 µM (inactive) | > 100 µM (inactive) | 28.8 µM (inactive) | 35.4 µM (inactive) | 63.4 µM (inactive) | 60.7 µM (inactive) | 20 µM (inactive) | 28.8 µM (inactive) | 84.1 µM (inactive) | > 100 µM (inactive) | 46.9 µM (inactive) | 85.3 µM (inactive) | > 100 µM (inactive) | 84.9 µM (inactive) | 54.3 µM (inactive) | 53.7 µM (inactive) |
| CC(C)=CC1CCc2ccccc2N1S(=O)(=O)c1ccc(C)cc1 (stereo unspecified) | 1.36 µM (inactive) | 1.4 µM (inactive) | 1.79 µM (inactive) | 4.31 µM (inactive) | 0.272 µM (active) | 3.31 µM (inactive) |  | 1.68 µM (inactive) | 1.7 µM (inactive) | 2.72 µM (inactive) | 3.46 µM (inactive) | 0.982 µM (active) | 2.4 µM (inactive) | 0.865 µM (active) | 14.8 µM (inactive) | 0.982 µM (active) |
| Cc1c(C(=O)/C=C/c2ccccc2Cl)[n+]([O-])c2ccccc2[n+]1[O-] | 17.3 µM (inactive) | 14.5 µM (inactive) | 13.6 µM (inactive) | 12.1 µM (inactive) | 12.3 µM (inactive) | 17.2 µM (inactive) | 16.6 µM (inactive) |  | 20.4 µM (inactive) | 13.3 µM (inactive) | 17.3 µM (inactive) |  | 15 µM (inactive) | 15.9 µM (inactive) | 20.9 µM (inactive) | 10.6 µM (inactive) |
| Cc1ccc(/C=C2\CCCC\C2=N\O)cc1 | 51.8 µM (inactive) | 47.3 µM (inactive) |  | 38.8 µM (inactive) | 12.9 µM (inactive) | 37.8 µM (inactive) |  | 58.7 µM (inactive) | > 100 µM (inactive) | 59.3 µM (inactive) | 53 µM (inactive) | > 100 µM (inactive) | 74.5 µM (inactive) | > 100 µM (inactive) |  | 45.9 µM (inactive) |
| c1ccc(OCCSCCCCCCCCCCSCCOc2ccccc2)cc1 |  | > 100 µM (inactive) | > 100 µM (inactive) |  | > 100 µM (inactive) | 48.1 µM (inactive) |  | > 100 µM (inactive) | > 100 µM (inactive) | 61.2 µM (inactive) | > 100 µM (inactive) | > 100 µM (inactive) | > 100 µM (inactive) | > 100 µM (inactive) | > 100 µM (inactive) |  |
| O=C(Nc1ccccc1)O/N=C1/CCCC/C1=C\c1ccccc1 | 28.2 µM (inactive) | 26 µM (inactive) | 15 µM (inactive) | 14.8 µM (inactive) |  | 16.4 µM (inactive) | 16.1 µM (inactive) | 18.9 µM (inactive) | 20.3 µM (inactive) | 18.1 µM (inactive) |  | 15.7 µM (inactive) | 3.55 µM (inactive) | 15.2 µM (inactive) | 26.2 µM (inactive) | 13.7 µM (inactive) |
| CC12CCC(C)(c3cc(O)c(O)cc31)c1cc(O)c(O)cc12 | 14.7 µM (inactive) | 27 µM (inactive) | 32.6 µM (inactive) | 14.6 µM (inactive) | 3.38 µM (inactive) | 16.1 µM (inactive) |  | 16.4 µM (inactive) | 19.2 µM (inactive) | 19.7 µM (inactive) | 15.5 µM (inactive) | 17.3 µM (inactive) | 20.3 µM (inactive) | 17.8 µM (inactive) | 22.3 µM (inactive) |  |
| C=C1C(=O)OC2C1CC[C@H](C)C1(O)C(O)CC(=O)[C@@]21C (stereo partly specified) | 20.4 µM (inactive) | 18.7 µM (inactive) | 27.2 µM (inactive) |  | 17 µM (inactive) | 19.5 µM (inactive) | 17.1 µM (inactive) |  | 24.9 µM (inactive) | 17.4 µM (inactive) | 52 µM (inactive) | 12.7 µM (inactive) | 28.8 µM (inactive) | 21.2 µM (inactive) | 21 µM (inactive) | 15 µM (inactive) |
| COc1cc2c(c(OC)c1OC)-c1ccc(SC)c(=O)cc1[C@@H](NC(=O)c1ccc(F)cc1)CC2 | 0.0318 µM (active) | 0.0417 µM (active) | 0.0407 µM (active) | 6.59 µM (inactive) | < 0.01 µM (active) | 0.0467 µM (active) |  | 0.0501 µM (active) | 0.0294 µM (active) | 0.053 µM (active) |  | 0.0454 µM (active) | 0.0594 µM (active) | 0.0183 µM (active) | 48.1 µM (inactive) | 0.0416 µM (active) |

From ChEMBL document CHEMBL1201862, “PubChem BioAssay data set” (2004)
